Source: ChEMBL document CHEMBL5214960 (J Med Chem, 2022)
Changes are numbered by the printed parent chain. Values after ≈ are worked out from the molar mass of the structure shown.

Key:
[1] = target: T1, Low molecular weight phosphotyrosine protein phosphatase (Homo sapiens, UniProt P24666); test: Inhibition of His-tagged human LMW-PTP expressed in Escherichia coli BL21 using pNPP as substrate incubated for 10 mins by microplate reader based spectrophotometric analysis
T1 sequence (P24666 whole entry): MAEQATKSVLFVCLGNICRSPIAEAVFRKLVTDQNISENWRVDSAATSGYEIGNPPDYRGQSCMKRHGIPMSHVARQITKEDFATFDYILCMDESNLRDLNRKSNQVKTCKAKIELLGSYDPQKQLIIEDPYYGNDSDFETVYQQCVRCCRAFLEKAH

CYP2D6 = CYP2D6 (Homo sapiens, UniProt P10635); test: Inhibition of human hepatic CYP2D6 using bufuralol HCL as substrate measured after 3 mins by LC-MS analysis relative to control; format: ADME, tissue-based; design: concentration or dose not given beside the values; conditions: human hepatic CYP2D6 (liver), probe bufuralol HCl
CYP2D6, sequence (P10635 whole entry): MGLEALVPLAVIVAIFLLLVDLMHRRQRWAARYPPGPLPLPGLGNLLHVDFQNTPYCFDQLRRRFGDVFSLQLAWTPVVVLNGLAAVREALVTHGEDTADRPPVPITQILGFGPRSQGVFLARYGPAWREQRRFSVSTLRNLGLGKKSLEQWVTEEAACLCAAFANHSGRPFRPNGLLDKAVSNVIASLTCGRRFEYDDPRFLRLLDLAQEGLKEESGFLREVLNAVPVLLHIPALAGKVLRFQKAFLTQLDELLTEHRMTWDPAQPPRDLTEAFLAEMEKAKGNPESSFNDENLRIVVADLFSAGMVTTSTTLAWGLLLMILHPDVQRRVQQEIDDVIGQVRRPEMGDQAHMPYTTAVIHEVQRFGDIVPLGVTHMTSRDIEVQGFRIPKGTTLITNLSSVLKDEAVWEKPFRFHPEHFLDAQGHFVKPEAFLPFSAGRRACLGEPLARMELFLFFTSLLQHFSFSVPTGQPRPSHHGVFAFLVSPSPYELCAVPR

[2] = Metabolic stability in human hepatic microsome at 4 uM measured after 30 mins by LC-MS analysis; format: ADME; conditions: liver microsomes, read-out: Stability
CYP3A4 = CYP3A4 (Homo sapiens, UniProt P08684); test: Inhibition of human hepatic CYP3A4 using midazolam as substrate measured after 3 mins by LC-MS analysis relative to control; format: ADME, tissue-based; design: concentration or dose not given beside the values; conditions: human hepatic CYP3A4 (liver), probe midazolam
CYP3A4, sequence (P08684 whole entry): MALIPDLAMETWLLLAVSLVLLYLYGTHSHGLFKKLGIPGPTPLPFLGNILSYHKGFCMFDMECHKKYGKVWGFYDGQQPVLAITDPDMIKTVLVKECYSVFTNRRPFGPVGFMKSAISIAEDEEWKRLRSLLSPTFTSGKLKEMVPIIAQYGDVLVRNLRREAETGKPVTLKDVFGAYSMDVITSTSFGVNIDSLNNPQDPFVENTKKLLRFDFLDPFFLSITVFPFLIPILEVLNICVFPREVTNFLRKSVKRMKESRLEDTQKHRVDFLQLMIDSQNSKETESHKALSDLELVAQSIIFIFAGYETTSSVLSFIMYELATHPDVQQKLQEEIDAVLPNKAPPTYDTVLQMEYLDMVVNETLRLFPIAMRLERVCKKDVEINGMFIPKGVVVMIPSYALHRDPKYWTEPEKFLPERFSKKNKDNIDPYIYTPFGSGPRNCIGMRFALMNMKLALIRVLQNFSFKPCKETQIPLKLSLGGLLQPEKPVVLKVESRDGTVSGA

[3] = Aqueous solubility of compound at pH 6 by HPLC analysis; format: physicochemical; conditions: buffer
[4] = Plasma protein binding in mouse assessed as unbound fraction measured after 4.5 hrs by LC-MS/MS analysis; format: ADME, cell-free
[5] = Metabolic stability in dog hepatic microsome at 4 uM measured after 30 mins by LC-MS analysis; format: ADME, Canis lupus familiaris; conditions: liver microsomes, read-out: Stability
CYP2C9 = CYP2C9 (Homo sapiens, UniProt P11712); test: Inhibition of human hepatic CYP2C9 using diclofenac as substrate measured after 10 mins by LC-MS analysis relative to control; format: ADME, tissue-based; design: concentration or dose not given beside the values; conditions: human hepatic CYP2C9 (liver), probe diclofenac
CYP2C9, sequence (P11712 whole entry): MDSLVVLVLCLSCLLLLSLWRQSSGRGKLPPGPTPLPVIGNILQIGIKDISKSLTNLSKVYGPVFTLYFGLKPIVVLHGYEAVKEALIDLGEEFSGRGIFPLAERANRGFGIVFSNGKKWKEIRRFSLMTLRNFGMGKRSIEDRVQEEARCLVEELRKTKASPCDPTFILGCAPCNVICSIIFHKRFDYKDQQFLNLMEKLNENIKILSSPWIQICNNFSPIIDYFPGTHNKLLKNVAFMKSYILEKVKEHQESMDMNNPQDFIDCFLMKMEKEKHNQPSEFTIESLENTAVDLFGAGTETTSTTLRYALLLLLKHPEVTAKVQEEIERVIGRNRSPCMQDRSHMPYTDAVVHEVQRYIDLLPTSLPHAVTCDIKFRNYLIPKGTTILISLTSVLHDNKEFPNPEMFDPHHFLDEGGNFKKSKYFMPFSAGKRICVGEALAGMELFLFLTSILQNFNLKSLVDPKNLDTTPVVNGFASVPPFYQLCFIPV

[6] = Metabolic stability in mouse hepatic microsome at 4 uM measured after 30 mins by LC-MS analysis; format: ADME; conditions: liver microsomes, read-out: Stability
[7] = Tmax in Sprague-Dawley rat plasma at 30 mg/kg, po measured after 24 hrs by LC-MS/MS analysis; format: ADME, organism-based; conditions: in vivo
[8] = Unbound Cmax in plasma of CD-1 mouse at 2 mg/kg, iv measured after 8 hrs by LC-MS/MS analysis; format: ADME, organism-based; conditions: in vivo
[9] = Inhibition of PTP-Meg2 (unknown origin); design: species or system Homo sapiens
[10] = Cmax in CD-1 mouse plasma at 10 mg/kg, po measured after 8 hrs by LC-MS/MS analysis; format: ADME, organism-based; design: dose 10 mg/kg, time 8 hrs, route po; conditions: mouse, in vivo, 8 h
[11] = Half life in CD-1 mouse plasma at 10 mg/kg, po measured after 8 hrs by LC-MS/MS analysis; format: ADME, organism-based; conditions: in vivo
[12] = Unbound Cmax in plasma of Sprague-Dawley rat at 30 mg/kg, po measured after 24 hrs by LC-MS/MS analysis; format: ADME, organism-based; conditions: in vivo
[13] = Cmax in CD-1 mouse plasma at 2 mg/kg, iv measured after 8 hrs by LC-MS/MS analysis; format: ADME, organism-based; design: time 8 hrs, dose 2 mg/kg, route iv
[14] = AUC(0 to 12 hrs) in Sprague-Dawley rat plasma at 30 mg/kg, po measured after 24 hrs by LC-MS/MS analysis; format: ADME, organism-based; design: time 24 hrs, dose 30 mg/kg, route po; conditions: in vivo
[15] = Volume of distribution at steady state in CD-1 mouse plasma at 2 mg/kg, iv measured after 8 hrs by LC-MS/MS analysis; format: ADME, organism-based; conditions: in vivo
[16] = Unbound Cmax in plasma of CD-1 mouse at 10 mg/kg, po measured after 8 hrs by LC-MS/MS analysis; format: ADME, organism-based; conditions: in vivo
[17] = target: T2, Low molecular weight phosphotyrosine protein phosphatase (Rattus norvegicus, UniProt P41498); test: Inhibition of N-terminal His-tagged full length rat LMW-PTP expressed in Escherichia coli BL21(DE3)
T2 sequence (P41498 whole entry): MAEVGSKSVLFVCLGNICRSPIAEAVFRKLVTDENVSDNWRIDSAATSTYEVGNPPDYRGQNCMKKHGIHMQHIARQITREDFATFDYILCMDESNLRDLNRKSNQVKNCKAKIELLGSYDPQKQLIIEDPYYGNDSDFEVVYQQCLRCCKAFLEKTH

[18] = Cmax in Sprague-Dawley rat plasma at 30 mg/kg, po measured after 24 hrs by LC-MS/MS analysis; format: ADME, organism-based; design: time 24 hrs, dose 30 mg/kg, route po; conditions: in vivo
[19] = target: T3, Low molecular weight phosphotyrosine protein phosphatase (Mus musculus, UniProt Q9D358); test: Inhibition of N-terminal His-tagged full length mouse LMW-PTP expressed in Escherichia coli BL21(DE3) by […] analysis
T3 sequence (Q9D358 whole entry): T2 sequence (P41498 whole entry) with N35K, K65R, R80K, H158Y

[20] = Oral bioavailability in CD-1 mouse plasma at 10 mg/kg measured after 8 hrs by LC-MS/MS analysis; format: ADME, organism-based
[21] = Half life in Sprague-Dawley rat plasma at 30 mg/kg, po measured after 24 hrs by LC-MS/MS analysis; format: ADME, organism-based; conditions: in vivo
[22] = Half life in CD-1 mouse plasma at 2 mg/kg, iv measured after 8 hrs by LC-MS/MS analysis; format: ADME, organism-based; conditions: mouse, in vivo, iv, 2 mg/kg, 8 h
[23] = AUC(0 to 8 hrs) in CD-1 mouse plasma at 2 mg/kg, iv measured after 8 hrs by LC-MS/MS analysis; format: ADME, organism-based; design: dose 2 mg/kg, time 8 hrs, route iv; conditions: in vivo
[24] = AUC(0 to 8 hrs) in CD-1 mouse plasma at 10 mg/kg, po measured after 8 hrs by LC-MS/MS analysis; format: ADME, organism-based; design: dose 10 mg/kg, time 8 hrs, route po; conditions: in vivo

Compound: O=C(CS(=O)(=O)O)Nc1ccccc1
- IC50 [1]: > 100000 nM

Compound: O=C(CS(=O)(=O)O)Nc1cc(Br)cc([N+](=O)[O-])c1
- IC50 [1]: 3400 nM

Compound: O=C(CS(=O)(=O)O)Nc1cc(Br)cc2ccccc12
- IC50 [1]: 6000 nM

Compound: O=C(Nc1nc2ccccc2s1)C(c1ccccc1)S(=O)(=O)O (centres undefined)
- inhibition at 0.05 h (CYP2D6): 5%
- remaining at 0.5 h, 4 µM [2]: 54%
- inhibition at 0.05 h (CYP3A4): 9%
- solubility [3]: 660 µg/mL (≈ 1890 µM)
- Fu [4]: < 0.006
- remaining at 0.5 h, 4 µM [5]: 61%
- inhibition at 10 min (CYP2C9): 69%
- remaining at 0.5 h, 4 µM [6]: 17%

Compound: Cc1c(Br)cc(NC(=O)[C@@H](c2cncs2)S(=O)(=O)O)cc1Br
- IC50 [1]: 11400 nM

Compound: O=C(Nc1ccccc1)NS(=O)(=O)O
- IC50 [1]: 121 nM

Compound: O=C(CS(=O)(=O)O)Nc1cc(Cl)cc(Cl)c1
- IC50 [1]: 8600 nM

Compound: O=C(CS(=O)(=O)O)Nc1nc2ccc([N+](=O)[O-])cc2s1
- inhibition at 0.05 h (CYP2D6): 1%
- remaining at 0.5 h, 4 µM [2]: 53%
- inhibition at 0.05 h (CYP3A4): 0%
- solubility [3]: 590 µg/mL (≈ 1860 µM)
- Fu [4]: 0.057
- remaining at 0.5 h, 4 µM [5]: 7%
- IC50 [1]: 200 nM
- inhibition at 10 min (CYP2C9): 0%
- remaining at 0.5 h, 4 µM [6]: 4%

Compound: O=C(CS(=O)(=O)O)Nc1nc2ccccc2s1
- inhibition at 0.05 h (CYP2D6): 0%
- remaining at 0.5 h, 4 µM [2]: 18%
- inhibition at 0.05 h (CYP3A4): 6%
- solubility [3]: 530 µg/mL (≈ 1950 µM)
- Fu [4]: 0.209
- remaining at 0.5 h, 4 µM [5]: 11%
- inhibition at 10 min (CYP2C9): 1%
- remaining at 0.5 h, 4 µM [6]: 3%

Compound: Cc1c(Br)cc(NC(=O)C(c2ccccc2)S(=O)(=O)O)cc1Br (centres undefined)
- inhibition at 0.05 h (CYP2D6): 1%
- Tmax [7]: 2.7 h
- remaining at 0.5 h, 4 µM [2]: 34%
- fCmax [8]: < 30 nM
- IC50 [9]: > 200000 nM
- Cmax [10]: 1020 nM
- t1/2 [11]: 5.2 h
- inhibition at 0.05 h (CYP3A4): 0%
- fCmax [12]: < 43 nM
- Cmax [13]: 4940 nM
- solubility [3]: 920 µg/mL (≈ 1990 µM)
- AUC [14]: 37.1 µM·h
- Vdss [15]: 3.4 L/kg
- Fu [4]: < 0.006
- remaining at 0.5 h, 4 µM [5]: 59%
- fCmax [16]: < 6 nM
- IC50 [17]: 300 nM
- Cmax [18]: 6120 nM
- IC50 [19]: 200 nM
- bioavailability ([20]; CD-1, mouse, plasma): 50%
- t1/2 [21]: 3 h
- t1/2 [22]: 2 h
- inhibition at 10 min (CYP2C9): 79%
- remaining at 0.5 h, 4 µM [6]: 50%
- AUC [23]: 2.09 µM·h
- AUC [24]: 5.24 µM·h

Compound: N.O=C(Nc1nc2ccccc2s1)NS(=O)(=O)O
- inhibition at 0.05 h (CYP2D6): 0%
- remaining at 0.5 h, 4 µM [2]: 7%
- inhibition at 0.05 h (CYP3A4): 4%
- Fu [4]: 0.07
- remaining at 0.5 h, 4 µM [5]: 0%
- IC50 [1]: 56 nM
- inhibition at 10 min (CYP2C9): 0%
- remaining at 0.5 h, 4 µM [6]: 0%

Compound: O=C(CS(=O)(=O)O)Nc1ncc(-c2ccccc2)s1
- IC50 [1]: 1500 nM

Compound: O=C(CS(=O)(=O)O)Nc1ccc(N2CCOCC2)c(Br)c1
- inhibition at 0.05 h (CYP2D6): 20%
- Tmax [7]: 1 h
- remaining at 0.5 h, 4 µM [2]: 3%
- fCmax [8]: 1966 nM
- Cmax [10]: 483 nM
- t1/2 [11]: 4.2 h
- inhibition at 0.05 h (CYP3A4): 36%
- fCmax [12]: 43 nM
- Cmax [13]: 8090 nM
- solubility [3]: 760 µg/mL (≈ 2000 µM)
- AUC [14]: 1.23 µM·h
- Vdss [15]: 0.73 L/kg
- Fu [4]: 0.243
- remaining at 0.5 h, 4 µM [5]: 11%
- fCmax [16]: 117 nM
- IC50 [17]: 36 nM
- Cmax [18]: 258 nM
- IC50 [1]: 1500 nM
- IC50 [19]: 36 nM
- F ([20]; mouse, in vivo, po, 10 mg/kg, 8 h): 23%
- t1/2 [21]: 6.8 h
- t1/2 [22]: 0.2 h
- inhibition at 10 min (CYP2C9): 64%
- remaining at 0.5 h, 4 µM [6]: 3%
- AUC [23]: 1.72 µM·h
- AUC [24]: 1.94 µM·h

Compound: Cc1c(Br)cc(NC(=O)[C@@H](C#N)S(=O)(=O)O)cc1Br
- IC50 [1]: 4400 nM

Compound: Cc1cc([N+](=O)[O-])c2nc(NC(=O)CS(=O)(=O)O)sc2c1
- IC50 [1]: 400 nM
